Reference: patent US20240262832A1, “SMALL MOLECULE MODULATORS OF GLUCOCEREBROSIDASE ACTIVITY AND USES THEREOF” (Vanqua Bio, Inc., priority 2021, published 2024)

Molecular target: T1, GCase (Homo sapiens, UniProt P04062)
T1 construct: endogenous in cells; host or cells: HeLa cells
T1 sequence (P04062 40-536): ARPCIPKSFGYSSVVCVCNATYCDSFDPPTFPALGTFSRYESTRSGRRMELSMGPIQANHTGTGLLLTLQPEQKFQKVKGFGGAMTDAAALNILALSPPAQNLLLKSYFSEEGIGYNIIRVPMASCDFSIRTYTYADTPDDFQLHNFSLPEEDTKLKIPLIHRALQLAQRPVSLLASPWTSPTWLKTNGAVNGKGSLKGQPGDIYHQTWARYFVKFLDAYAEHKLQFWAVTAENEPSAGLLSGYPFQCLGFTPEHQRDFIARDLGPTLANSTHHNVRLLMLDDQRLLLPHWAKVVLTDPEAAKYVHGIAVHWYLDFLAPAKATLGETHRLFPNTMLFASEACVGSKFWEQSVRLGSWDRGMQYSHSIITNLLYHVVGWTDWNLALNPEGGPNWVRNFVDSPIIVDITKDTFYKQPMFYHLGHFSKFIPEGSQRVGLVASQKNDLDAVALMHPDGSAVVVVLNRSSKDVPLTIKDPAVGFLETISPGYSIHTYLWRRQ
Test: activation of GCase in a live cell PFB assay in HELA cells
Type: cell-based

For `COC(C(=O)N1CCCC(COc2ccccc2)C1)c1ccc(Cl)cc1` (stereo not shown) [Compound 153], which EC50 is on record?
Its EC50 is 10 to 50 µM.

Which EC50 does the source give for `O=C(c1cc(CC2CC2)on1)N1CCCC(COc2ccccc2)C1` (stereo not shown) [Compound 188] here?
Its EC50 is over 100 µM.

`O=C(c1cnn(-c2ccc(Cl)cc2)n1)N1CCCC(COc2ccccc2)C1` (stereo not shown) [Compound 147] was tested. Which EC50 did it give?
The EC50 was 10 to 50 µM.

Which EC50 does the source give for `O=C(c1ccc2cc[nH]c2c1)N1CCC(Oc2cccc(C(F)(F)F)n2)CC1` [Compound 327, (1H-Indol-6-yl)(4-((6-(trifluoromethyl)pyridin-2-yl)oxy)piperidin-1-yl)methanone] here?
Its EC50 is 10 to 50 µM.

With `CC1CCC(COc2cccnc2C(F)(F)F)CN1c1cnc2cnn(CC(F)F)c2n1` (stereo not shown) [Compound 31, 1-(2,2-Difluoroethyl)-6-(2-methyl-5-(((2-(trifluoromethyl)pyridin-3-yl)oxy)methyl)piperidin-1-yl)-1H-pyrazolo[3,4-b]pyrazine] as the compound, how does the EC50 read?
Its EC50 is under 10 µM.

For `CC1CCC(COc2cccnc2C(F)(F)F)CN1c1cnc2cnn(CC3COC3)c2n1` (stereo not shown) [Compound 118, 6-(2-Methyl-5-(((2-(trifluoromethyl)pyridin-3-yl)oxy)methyl)piperidin-1-yl)-1-(oxetan-3-ylmethyl)-1H-pyrazolo[3,4-b]pyrazine], which EC50 is on record?
The EC50 was under 10 µM.

How did the EC50 turn out when `FC(F)Cn1ncc2ncc(N3CCC(Oc4cc(C(F)(F)F)ccn4)CC3)nc21` [Compound 326, 1-(2,2-Difluoroethyl)-6-(4-((4-(trifluoromethyl)pyridin-2-yl)oxy)piperidin-1-yl)-1H-pyrazolo[3,4-b]pyrazine] was run?
The EC50 was 10 to 50 µM.

Which EC50 does the source give for `O=C(NCCc1ccccc1)N1CCC(Oc2ccc(C(F)(F)F)cn2)CC1` [Compound 379] here?
The EC50 was over 100 µM.

How did the EC50 turn out when `Cn1c(-c2ccc(F)cc2)nc2nc(C(=O)N3CCCC(COc4cccnc4C(F)(F)F)C3)cnc21` (stereo not shown) [Compound 97, (2-(4-Fluorophenyl)-1-methyl-1H-imidazo[4,5-b]pyrazin-5-yl)(3-(((2-(trifluoromethyl)pyridin-3-yl)oxy)methyl)piperidin-1-yl)methanone] was run?
The EC50 was over 100 µM.

`O=C(c1cnn(-c2ccccc2)n1)N1CCC(Oc2ccccc2)CC1` [Compound 410, 4-Phenoxy-1-(2-phenyl-2H-1,2,3-triazole-4-carbonyl)piperidine] was tested. Which EC50 did it give?
The EC50 was 10 to 50 µM.
